According to the supplement of paper PMC10307832:

Key:
Assay in all cases: relative viability (nuclei count vs DMSO), 5 days (fraction); higher = more cells survive
[1] = system: 201T
Method in brief: (§1)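 The day after seeding in 1536-well plates, lung cancer cell lines were treated by pin tool with a single drug, or with a fixed anchor-drug dose together with five library-drug doses (not always all listed) in √10 steps. After 5 days, a combined fix-and-stain solution (final 0.05% Triton X-100, 1% formaldehyde, 1 ug/ml Hoechst) was added. Nuclei counted on 4× images gave relative viability as treated counts over vehicle counts, reported as the median of duplicate plates.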

[2] = system: BEN
Method in brief: as §1

[3] = system: COR-L 105
Method in brief: as §1

[4] = system: EKVX
Method in brief: as §1

[5] = system: EPLC-272H
Method in brief: as §1

[6] = system: H3255
Method in brief: as §1

[7] = system: HCC-44
Method in brief: as §1

[8] = system: HCC-827
Method in brief: as §1

[9] = system: LCLC-97TM1
Method in brief: as §1

[10] = system: LOU-NH91
Method in brief: as §1

[11] = system: LU99A
Method in brief: as §1

[12] = system: NCI-H1437
Method in brief: as §1

[13] = system: NCI-H1666
Method in brief: as §1

[14] = system: NCI-H1975
Method in brief: as §1

[15] = system: NCI-H2085
Method in brief: as §1

[16] = system: NCI-H2087
Method in brief: as §1

[17] = system: NCI-H647
Method in brief: as §1

[18] = system: NCI-H650
Method in brief: as §1

[19] = system: PC-3 [JPC-3]
Method in brief: as §1

[20] = system: SW 1573
Method in brief: as §1

Structure (SMILES): Cc1sc2c(c1C)C(c1ccc(Cl)cc1)=N[C@@H](CC(=O)OC(C)(C)C)c1nnc(C)n1-2 [JQ1] + CC(C)C[C@H](NC(=O)[C@H](Cc1ccccc1)NC(=O)c1cnccn1)B(O)O [Bortezomib] (partner 0.002 µM)
- relative viability ([1]; first compound 0.04 µM): 1.14
- relative viability ([1]; first compound 0.1265 µM): 0.643
- relative viability ([1]; first compound 0.4 µM): 1.02
- relative viability ([1]; first compound 1.265 µM): 0.859
- relative viability ([1]; first compound 4 µM): 0.768
- relative viability ([2]; first compound 0.04 µM): 0.627
- relative viability ([2]; first compound 0.1265 µM): 0.605
- relative viability ([2]; first compound 0.4 µM): 0.463
- relative viability ([2]; first compound 1.265 µM): 0.322
- relative viability ([2]; first compound 4 µM): 0.221
- relative viability ([3]; first compound 0.04 µM): 0.584
- relative viability ([3]; first compound 0.1265 µM): 0.348
- relative viability ([3]; first compound 0.4 µM): 0.3
- relative viability ([3]; first compound 1.265 µM): 0.292
- relative viability ([3]; first compound 4 µM): 0.342
- relative viability ([4]; first compound 0.04 µM): 0.981
- relative viability ([4]; first compound 0.1265 µM): 0.842
- relative viability ([4]; first compound 0.4 µM): 1.16
- relative viability ([4]; first compound 1.265 µM): 0.749
- relative viability ([4]; first compound 4 µM): 0.704
- relative viability ([5]; first compound 0.04 µM): 0.915
- relative viability ([5]; first compound 0.1265 µM): 0.911
- relative viability ([5]; first compound 0.4 µM): 0.989
- relative viability ([5]; first compound 1.265 µM): 0.414
- relative viability ([5]; first compound 4 µM): 0.367
- relative viability ([6]; first compound 0.04 µM): 0.628
- relative viability ([6]; first compound 0.1265 µM): 0.553
- relative viability ([6]; first compound 0.4 µM): 0.747
- relative viability ([6]; first compound 1.265 µM): 0.306
- relative viability ([6]; first compound 4 µM): 0.278
- relative viability ([7]; first compound 0.04 µM): 0.941
- relative viability ([7]; first compound 0.1265 µM): 0.702
- relative viability ([7]; first compound 0.4 µM): 0.744
- relative viability ([7]; first compound 1.265 µM): 0.461
- relative viability ([7]; first compound 4 µM): 0.224
- relative viability ([8]; first compound 0.04 µM): 0.929
- relative viability ([8]; first compound 0.4 µM): 0.743
- relative viability ([8]; first compound 1.265 µM): 1.25
- relative viability ([8]; first compound 4 µM): 0.928
- relative viability ([9]; first compound 0.04 µM): 0.492
- relative viability ([9]; first compound 0.1265 µM): 0.533
- relative viability ([9]; first compound 0.4 µM): 0.336
- relative viability ([9]; first compound 1.265 µM): 0.0995
- relative viability ([9]; first compound 4 µM): 0.0548
- relative viability ([10]; first compound 0.04 µM): 0.525
- relative viability ([10]; first compound 0.1265 µM): 0.476
- relative viability ([10]; first compound 0.4 µM): 0.428
- relative viability ([10]; first compound 1.265 µM): 0.3
- relative viability ([10]; first compound 4 µM): 0.327
- relative viability ([11]; first compound 0.04 µM): 1.32
- relative viability ([11]; first compound 0.1265 µM): 0.8
- relative viability ([11]; first compound 0.4 µM): 0.802
- relative viability ([11]; first compound 1.265 µM): 0.426
- relative viability ([11]; first compound 4 µM): 0.265
- relative viability ([12]; first compound 0.04 µM): 0.42
- relative viability ([12]; first compound 0.1265 µM): 0.369
- relative viability ([12]; first compound 0.4 µM): 0.276
- relative viability ([12]; first compound 1.265 µM): 0.228
- relative viability ([12]; first compound 4 µM): 0.194
- relative viability ([13]; first compound 0.04 µM): 0.658
- relative viability ([13]; first compound 0.1265 µM): 0.698
- relative viability ([13]; first compound 0.4 µM): 0.543
- relative viability ([13]; first compound 1.265 µM): 0.428
- relative viability ([13]; first compound 4 µM): 0.443
- relative viability ([14]; first compound 0.04 µM): 0.355
- relative viability ([14]; first compound 0.1265 µM): 0.258
- relative viability ([14]; first compound 0.4 µM): 0.317
- relative viability ([14]; first compound 1.265 µM): 0.177
- relative viability ([14]; first compound 4 µM): 0.152
- relative viability ([15]; first compound 0.04 µM): 0.999
- relative viability ([15]; first compound 0.1265 µM): 0.861
- relative viability ([15]; first compound 0.4 µM): 0.893
- relative viability ([15]; first compound 1.265 µM): 0.61
- relative viability ([15]; first compound 4 µM): 0.564
- relative viability ([16]; first compound 0.04 µM): 0.832
- relative viability ([16]; first compound 0.4 µM): 0.943
- relative viability ([16]; first compound 1.265 µM): 0.553
- relative viability ([16]; first compound 4 µM): 0.416
- relative viability ([17]; first compound 0.04 µM): 0.678
- relative viability ([17]; first compound 0.1265 µM): 0.521
- relative viability ([17]; first compound 0.4 µM): 0.346
- relative viability ([17]; first compound 1.265 µM): 0.0716
- relative viability ([17]; first compound 4 µM): 0.102
- relative viability ([18]; first compound 0.04 µM): 0.742
- relative viability ([18]; first compound 0.1265 µM): 0.351
- relative viability ([18]; first compound 0.4 µM): 0.432
- relative viability ([18]; first compound 1.265 µM): 0.183
- relative viability ([18]; first compound 4 µM): 0.184
- relative viability ([19]; first compound 0.04 µM): 0.845
- relative viability ([19]; first compound 0.1265 µM): 0.81
- relative viability ([19]; first compound 0.4 µM): 0.977
- relative viability ([19]; first compound 1.265 µM): 0.675
- relative viability ([19]; first compound 4 µM): 0.352
- relative viability ([20]; first compound 0.04 µM): 1.13
- relative viability ([20]; first compound 0.1265 µM): 1.03
- relative viability ([20]; first compound 0.4 µM): 0.863
- relative viability ([20]; first compound 1.265 µM): 0.582
- relative viability ([20]; first compound 4 µM): 0.351
